Patent publication US12173018B2, “Penicillin-binding protein inhibitors” (priority 2018, dated 2024)
≈ marks a conversion by molar mass, not a printed value. Where a name gives a salt, the structure may show the parent alone. Read-outs that look alike come from different tables or passages of the source.

What was measured:
E. coli PBP3 = E. coli PBP3 (Escherichia coli (strain K12), UniProt P0AD68); assay: E. coli PBP3 Bocillin-FL fluorescence polarization competition binding assay
Method in brief: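 FP competition: 1.5 μM PBP, 0.1 μM Bocillin-FL, cpd 0–1000 μM; 50 mM Hepes pH 8.0/300 mM NaCl/5% glycerol. Read 490/520 nm immediately after Bocillin-FL addition, 60 min. EC50 = cpd conc. lowering probe binding.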

E. coli PBP1a = E. coli PBP1a (Escherichia coli (strain K12), UniProt P02918); assay: Radioligand competition binding assay with 14C-labeled boronic acid probe, PBP1a
From the text: To determine the ability of boronic acid-based test PBP inhibitors to bind Penicillin Binding Proteins (PBPs), a radio-labelled boronic acid PBP inhibitor
[drawing 751] was used in competition binding assays to determine boronic acid PBP inhibitor binding to PBP1a or PBP1b from Escherichia coli. PBP1a and PBP1b were purified as described previously (Bertsche, U.; et al., J. Biol. Chem. 2005, 280 (45), 38096-38101; Born, P.; et al., J. Biol. Chem. 2006. 281 (37), 26985-26993). To establish assay conditions for competition binding, an enzyme titration/saturation binding experiment was performed. Saturation binding was performed in a buffer comprised of 20 mM Tris (pH 7.5), 500 mM NaCl and 0.1% (v/v) TritonX-100, with PBP1a/PBP1b at a final concentration of 0.1 μM and Compound A at final concentrations ranging from 0-100 μM. Mixtures were incubated for 60 minutes, then applied to Zeba Spin Desalting columns or plates (ThermoFisher Scientific) and centrifuged at 1000-1500×g for 2 minutes. The flow through, containing PBP bound with Compound A, was recovered and 100 μL mixed with 5 mL of UltimaGold liquid scintillation cocktail (Perkin Elmer), and the radioactivity counted using a Beckman Coulter LS 6500 Multipurpose scintillation counter. PBP binding of Compound A approached saturation at 20 μM of ^14C-labeled probe. The competition binding assay was validated using the beta-lactam ampicillin, with Compound A at a final concentration of 20 μM, PBP1a/PBP1b at a final concentration of 0.1 μM. PBP1a/PBP1b was incubated with ampicillin in a 96-well microplate for 60 minutes, then Compound A was added and the mixtures incubated for an additional 60 minutes. The mixtures were then applied to Zeba Spin desalting plates and centrifuged at 1000×g for 2 minutes. The flow through was recovered and 100 μl mixed with 5 ml of UltimaGold liquid scintillation cocktail and the radioactivity counted. […] Binding assays with boronic acid PBP inhibitors were performed in an identical fashion. The potency of boronic acid PBP inhibitors was reported as the EC50 value.

[1] = test system: engineered strain of Escherichia coli harboring CTX-M15; assay: microbe, parasite or virus in culture; format: cell-based; settings: Escherichia coli, read-out: Microbiological Activity (MIC in mg/L), E. coli DH5α/pLBII-CTX-M15, engineered strain producing CTX-M15
[2] = test system: E. coli DH5α empty pLBII vector control strain; assay: microbe, parasite or virus in culture; format: cell-based, Escherichia coli; settings: Escherichia coli, read-out: Microbiological Activity (MIC in mg/L), E. coli DH5α/pLBII
Method in brief: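 MIC was the lowest concentration visibly free of growth after 16–20 h at 37 °C, against 5×10^5 CFU/mL of the empty-pLBII DH5α control strain. Twofold compound dilutions were made in cation-adjusted Mueller-Hinton broth.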

E. coli PBP1b = E. coli PBP1b (Escherichia coli (strain K12), UniProt P02919); assay: Radioligand competition binding assay with 14C-labeled boronic acid probe, PBP1b
E. coli ATCC 25922 = assay: Broth microdilution MIC, E. coli ATCC 25922; format: cell-based; settings: Escherichia coli, ATCC25922; E. coli ATCC 25922, broth microdilution; read-out: MIC E. coli 25922
Method in brief: (§1)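 Colonies from Mueller Hinton II agar were grown 3-5 hours at 37° C in cation-supplemented broth, adjusted by OD600, then added to 2-fold compound dilutions at 5×10^5 CFU/mL. After 16-20 hours at 37° C, MICs were scored visually.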

E. coli AG100 = assay: Broth microdilution MIC, E. coli AG100 (wild-type parent); format: cell-based; settings: Escherichia coli; wild-type parent E. coli AG100, broth microdilution; read-out: MIC E. coli AG100
Method in brief: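 Starting inoculum of 5×10^5 CFU/mL, from colonies grown 3-5 h in Mueller-Hinton broth with divalent cations, added to two-fold compound dilution series.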

E. coli 901C = assay: microbe, parasite or virus in culture; format: cell-based; settings: Escherichia coli; hyper-permeable E. coli 901C, broth microdilution; read-out: MIC E. coli 901C
Method in brief: as §1

E. coli AG100A = assay: microbe, parasite or virus in culture; format: cell-based; settings: Escherichia coli, read-out: MIC E. coli AG100A
Method in brief: as §1

K. pneumoniae UMM = assay: microbe, parasite or virus in culture; format: cell-based; settings: Klebsiella pneumoniae; K. pneumoniae UMM producing SHV-5 and KPC-2; read-out: MIC K. pneumoniae UMM
Method in brief: as §1

E. coli D22 = assay: microbe, parasite or virus in culture; format: cell-based; settings: Escherichia coli; hyper-permeable E. coli D22, broth microdilution; read-out: MIC E. coli D22
Method in brief: as §1

K. pneumoniae SI-117 = assay: microbe, parasite or virus in culture; format: cell-based; settings: Klebsiella pneumoniae, SI117, read-out: MIC K. pneumoniae SI-117
Method in brief: as §1

K. pneumoniae 848844 = assay: microbe, parasite or virus in culture; format: cell-based, Klebsiella pneumoniae; settings: Klebsiella pneumoniae; K. pneumoniae 848844 producing SHV-11 and KPC-2; read-out: MIC K. pneumoniae 848844
Method in brief: as §1

[3] = fluorescence polarization competition binding with Bocillin-FL, read-out: E. coli K12 PBP3 Potency

Sequence of E. coli PBP3 (P0AD68 whole entry): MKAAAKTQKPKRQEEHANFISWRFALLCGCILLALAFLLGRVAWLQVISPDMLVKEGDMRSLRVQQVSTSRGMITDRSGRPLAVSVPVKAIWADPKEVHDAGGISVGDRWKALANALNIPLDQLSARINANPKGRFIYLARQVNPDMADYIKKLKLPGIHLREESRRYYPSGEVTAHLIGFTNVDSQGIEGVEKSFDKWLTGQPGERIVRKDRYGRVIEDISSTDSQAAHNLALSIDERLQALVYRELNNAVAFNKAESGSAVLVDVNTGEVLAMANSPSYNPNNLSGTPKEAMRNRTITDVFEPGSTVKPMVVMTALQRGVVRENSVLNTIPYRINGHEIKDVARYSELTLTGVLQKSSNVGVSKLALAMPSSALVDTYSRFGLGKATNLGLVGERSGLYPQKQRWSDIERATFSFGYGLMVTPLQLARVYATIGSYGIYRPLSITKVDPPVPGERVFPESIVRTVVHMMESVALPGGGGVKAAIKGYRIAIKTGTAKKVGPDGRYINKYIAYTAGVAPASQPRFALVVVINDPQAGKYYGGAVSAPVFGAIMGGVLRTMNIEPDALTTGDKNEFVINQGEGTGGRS
Sequence of E. coli PBP1b (P02919 whole entry): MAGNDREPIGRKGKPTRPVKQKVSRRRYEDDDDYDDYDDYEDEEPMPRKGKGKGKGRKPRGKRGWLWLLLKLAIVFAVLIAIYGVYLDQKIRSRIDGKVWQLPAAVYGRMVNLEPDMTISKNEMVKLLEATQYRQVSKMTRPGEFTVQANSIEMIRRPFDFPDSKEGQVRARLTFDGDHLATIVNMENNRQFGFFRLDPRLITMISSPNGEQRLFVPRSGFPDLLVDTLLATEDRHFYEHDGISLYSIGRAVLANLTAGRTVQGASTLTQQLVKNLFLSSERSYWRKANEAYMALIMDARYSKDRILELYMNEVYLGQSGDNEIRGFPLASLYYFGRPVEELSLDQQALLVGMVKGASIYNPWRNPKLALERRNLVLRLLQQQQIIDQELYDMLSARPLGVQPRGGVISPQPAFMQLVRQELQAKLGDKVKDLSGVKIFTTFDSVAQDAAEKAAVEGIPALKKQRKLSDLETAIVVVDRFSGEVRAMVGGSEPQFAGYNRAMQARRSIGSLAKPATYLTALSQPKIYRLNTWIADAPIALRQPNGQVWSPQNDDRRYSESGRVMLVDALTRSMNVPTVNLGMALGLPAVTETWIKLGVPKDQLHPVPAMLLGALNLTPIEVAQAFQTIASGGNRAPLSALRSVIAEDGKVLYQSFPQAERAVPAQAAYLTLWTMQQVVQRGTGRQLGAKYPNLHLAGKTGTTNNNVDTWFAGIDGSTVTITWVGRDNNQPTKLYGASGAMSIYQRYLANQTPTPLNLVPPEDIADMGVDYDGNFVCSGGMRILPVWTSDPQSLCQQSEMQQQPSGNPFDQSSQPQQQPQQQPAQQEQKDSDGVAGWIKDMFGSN
Sequence of E. coli PBP1a (P02918 whole entry): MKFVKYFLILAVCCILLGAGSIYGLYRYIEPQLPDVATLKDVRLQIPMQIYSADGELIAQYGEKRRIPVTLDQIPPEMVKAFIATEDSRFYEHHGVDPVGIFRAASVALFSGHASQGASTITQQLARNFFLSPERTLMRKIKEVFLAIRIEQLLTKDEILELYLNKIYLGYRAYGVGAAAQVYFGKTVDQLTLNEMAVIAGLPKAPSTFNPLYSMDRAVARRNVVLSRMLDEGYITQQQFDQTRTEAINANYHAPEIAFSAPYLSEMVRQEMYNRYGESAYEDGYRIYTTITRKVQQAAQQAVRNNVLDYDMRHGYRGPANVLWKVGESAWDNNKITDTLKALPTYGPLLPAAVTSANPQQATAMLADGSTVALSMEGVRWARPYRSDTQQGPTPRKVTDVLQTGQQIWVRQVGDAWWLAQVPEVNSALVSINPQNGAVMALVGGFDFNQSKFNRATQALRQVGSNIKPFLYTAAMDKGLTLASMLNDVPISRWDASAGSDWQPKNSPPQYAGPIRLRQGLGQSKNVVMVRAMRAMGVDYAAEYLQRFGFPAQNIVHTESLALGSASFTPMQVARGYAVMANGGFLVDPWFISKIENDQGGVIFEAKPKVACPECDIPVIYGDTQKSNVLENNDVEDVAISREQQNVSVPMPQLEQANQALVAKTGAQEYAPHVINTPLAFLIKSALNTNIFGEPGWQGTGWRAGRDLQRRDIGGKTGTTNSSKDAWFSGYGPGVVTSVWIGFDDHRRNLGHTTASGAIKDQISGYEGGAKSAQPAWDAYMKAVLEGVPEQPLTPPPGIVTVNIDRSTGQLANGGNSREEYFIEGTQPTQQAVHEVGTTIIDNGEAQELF

SMILES | EC50 (E. coli PBP3; [3]) [µM] | EC50 (E. coli PBP1a) [µM] | MIC [1] [mg/L] | MIC [2] [mg/L] | EC50 (E. coli PBP1b) [µM] | MIC (E. coli ATCC 25922) [mg/L] | MIC (E. coli AG100) [mg/L] | MIC (E. coli 901C) [mg/L] | MIC (E. coli AG100A) [mg/L] | MIC (K. pneumoniae UMM) [mg/L] | EC50 (E. coli PBP3) [µM] | MIC (E. coli D22) [mg/L] | MIC (K. pneumoniae SI-117) [mg/L] | MIC (K. pneumoniae 848844) [mg/L] | EC50 (E. coli PBP3; assay validation with beta-lactams, PBP 1.5 μM, Bocillin-FL 0.1 μM, read-out: EC50 for PBP3 (reduction of Bocillin-FL binding)) [µM] | EC50 (E. coli PBP1a; assay validation, Compound A 20 μM, PBP1a/PBP1b 0.1 μM, read-out: EC50 (inhibition of binding of Compound A) PBP1a) [µM] | EC50 (E. coli PBP1b; assay validation, Compound A 20 μM, PBP1a/PBP1b 0.1 μM, read-out: EC50 (inhibition of binding of Compound A) PBP1b) [µM]
CCN1CCN(C(=O)N[C@H](CCN)C(=O)N[C@H]2Cc3cccc(C(=O)O)c3OB2O)C(=O)C1=O [Example 17, (R)-3-((R)-4-amino-2-(4-ethyl-2,3-dioxopiperazine-1-carboxamido)butanamido)-2-hydroxy-3,4-dihydro-2H-benzo[e][1,2]oxaborinine-8-carboxylic acid, trifluoroacetic acid salt] | > 500 | < 10 | 128 to 256 | > 512 | – | – | – | – | – | – | – | – | – | – | – | – | –
CCN1CCN(C(=O)NC(C(=O)N[C@H]2Cc3cccc(C(=O)O)c3OB2O)c2ccc(O)c(O)c2)C(=O)C1=O (stereo partly drawn) [Example 22, (3R)-3-(2-(3,4-dihydroxyphenyl)-2-(4-ethyl-2,3-dioxopiperazine-1-carboxamido)acetamido)-2-hydroxy-3,4-dihydro-2H-benzo[e][1,2]oxaborinine-8-carboxylic acid] | < 30 | < 10 | 8 to 16 (≈ 14.8 to 29.6 µM) | 8 to 16 (≈ 14.8 to 29.6 µM) | < 10 | 8 to 16 | 8 to 16 | 0.5 to 1 | 2 to 4 | 8 to 16 | – | – | – | – | – | – | –
CCN1CCN(C(=O)NC(C(=O)N[C@H]2Cc3cccc(C(=O)O)c3OB2O)c2ccc(OC)cc2)C(=O)C1=O (stereo partly drawn) [Example 26, (3R)-3-(2-(4-ethyl-2,3-dioxopiperazine-1-carboxamido)-2-(4-methoxyphenyl)acetamido)-2-hydroxy-3,4-dihydro-2H-benzo[e][1,2]oxaborinine-8-carboxylic acid] | – | < 10 | 128 to 256 (≈ 238 to 476 µM) | 128 to 256 (≈ 238 to 476 µM) | – | – | – | – | – | – | 30 to 500 | – | – | – | – | – | –
CCN1CCN(C(=O)NC(C(=O)N[C@H]2Cc3cccc(C(=O)O)c3OB2O)c2cc(O)c(O)c(Cl)c2)C(=O)C1=O (stereo partly drawn) [Example 45, (3R)-3-(2-(3-chloro-4,5-dihydroxyphenyl)-2-(4-ethyl-2,3-dioxopiperazine-1-carboxamido)acetamido)-2-hydroxy-3,4-dihydro-2H-benzo[e][1,2]oxaborinine-8-carboxylic acid] | < 30 | < 10 | 8 to 16 (≈ 13.9 to 27.8 µM) | 8 to 16 (≈ 13.9 to 27.8 µM) | < 10 | 8 to 16 | 8 to 16 | 0.5 to 1 | 8 to 16 | 8 to 16 | – | – | – | – | – | – | –
CCN1CCN(C(=O)NC(C(=O)N[C@H]2Cc3cccc(C(=O)O)c3OB2O)c2ccc(O)c(OCCN)c2)C(=O)C1=O (stereo partly drawn) [Example 49, (3R)-3-(2-(3-(2-aminoethoxy)-4-hydroxyphenyl)-2-(4-ethyl-2,3-dioxopiperazine-1-carboxamido)acetamido)-2-hydroxy-3,4-dihydro-2H-benzo[e][1,2]oxaborinine-8-carboxylic acid] | – | < 10 | – | 32 to 64 (≈ 54.9 to 110 µM) | – | – | – | – | – | – | 30 to 500 | – | – | – | – | – | –
CCN1CCN(C(=O)NC(C(=O)N[C@H]2Cc3cccc(C(=O)O)c3OB2O)c2cc(O)c(O)cc2Cl)C(=O)C1=O (stereo partly drawn) [Example 85, (3R)-3-(2-(2-chloro-4,5-dihydroxyphenyl)-2-(4-ethyl-2,3-dioxopiperazine-1-carboxamido)acetamido)-2-hydroxy-3,4-dihydro-2H-benzo[e][1,2]oxaborinine-8-carboxylic acid] | – | < 10 | 32 to 64 (≈ 55.7 to 111 µM) | – | < 10 | 8 to 16 | 8 to 16 | 0.5 to 1 | 8 to 16 | 32 to 64 | – | – | – | – | – | – | –
O=C(O)c1cccc2c1OB(O)[C@@H](NC(=O)C(NC(=O)N1CCN(CCF)C(=O)C1=O)c1ccc(O)cn1)C2 (stereo partly drawn) [Example 99, (3R)-3-(2-(4-(2-fluoroethyl)-2,3-dioxopiperazine-1-carboxamido)-2-(5-hydroxypyridin-2-yl)acetamido)-2-hydroxy-3,4-dihydro-2H-benzo[e][1,2]oxaborinine-8-carboxylic acid] | < 30 | 10 to 100 | 32 to 64 (≈ 58.9 to 118 µM) | – | – | 32 to 64 | 32 to 64 | < 0.25 | 2 to 4 | 8 to 16 | – | – | – | – | – | – | –
Nc1ncc(C(NC(=O)N2CCN(CCF)C(=O)C2=O)C(=O)N[C@H]2Cc3cccc(C(=O)O)c3OB2O)s1 (stereo partly drawn) [Example 100, (3R)-3-(2-(2-aminothiazol-5-yl)-2-(4-(2-fluoroethyl)-2,3-dioxopiperazine-1-carboxamido)acetamido)-2-hydroxy-3,4-dihydro-2H-benzo[e][1,2]oxaborinine-8-carboxylic acid] | – | 10 to 100 | 8 to 16 (≈ 14.6 to 29.2 µM) | – | – | 32 to 64 | 32 to 64 | 0.5 to 1 | 2 to 4 | 8 to 16 | 30 to 500 | 8 to 16 | 8 to 16 | 32 to 64 | – | – | –
CC1(C)S[C@@H]2[C@H](NC(=O)[C@H](N)c3ccccc3)C(=O)N2[C@H]1C(=O)O [ampicillin, reference compound] | – | – | – | – | – | – | – | – | – | – | – | – | – | – | 1.4 | < 0.5 | < 0.5
